The subject of test [1] is HIV-1 envelope-mediated fusion between HeLa-EnvJR-FL and PM1 cells. As for the experimental part:
HIV-1 envelope-mediated fusion between HeLa-EnvJR-FL and PM1 cells was detected using a Resonance Energy Transfer (RET) assay.
HIV-1 inhibition data were analyzed according to the Combination Index method of Chou and Talay.
Equation (1) is a generalized form of the equations describing Michaelis-Menton enzyme kinetics, Langmuir adsorption isotherms, and Henderson-Hasselbalch ionization equilibria, for which m=1 in all cases. In the present case, K is equal to the IC50 value. K and m are determined by curve-fitting the dose-response curves.
After the best-fit parameters for K and m are obtained for the experimental agents and their combination, Equation (1) is rearranged to allow for calculation of c for a given f.
All concentrations are those required to achieve a given degree of inhibition. Equation (2) is used when the molecules are mutually nonexclusive, i.e., have different sites of action. Since this is the likely scenario for inhibitors of HIV-1 attachment and gp41 fusion intermediates, Equation (2) was used for all Combination Index calculations. Mutually nonexclusive calculations provide a more conservative estimate of the degree of synergy that mutually exclusive calculations, for which the c1mc2m/c1c2 term is dropped. CI<1 indicates synergy, CI=1 indicates purely additive effects, and CI>1 indicates antagonism. In general, CI values are most relevant at the higher levels of inhibition that are required to achieve a measurable clinical benefit.

Test [2] has as its system HIV. Conditions: Phase I/II; cited from earlier work.

On to enfuvirtide, for which the “concentration of the individual agent contained in the combination giving 95% inhibition” value in test [1] (25:1 CD4-IgG2:T-20 mass ratio, calculated from known mass ratio) is 0.044 µg/mL. In test [1] (95% inhibition, 25:1 CD4-IgG2:T-20 mass ratio), the “Dose Reduction (ratio of inhibitor concentration alone v. in synergistic combination)” value turned out to be 5 fold. Besides, in test [1] (HeLa-EnvJR-FL and PM1 cells, RET after 4 h, mean of three independent experiments, best-fit to median effect equation, FIG. 1), the “K, concentration of agent required to produce the median effect (equal to the IC50 value)” value came to 0.017 µg/mL. Besides, the “concentration required for inhibition of viral entry by 95%” value in test [1] (agent used alone, or total concentration of the 25:1 combination, calculated from fitted K and m, FIG. 3) was 0.21 µg/mL. Also, in test [2], the “reduction of plasma HIV RNA levels” value is recorded as no more than 2 logs.

These data come from patent publication US6692745B2, “Compositions and methods for inhibition of HIV-1 infection” (priority 2000, dated 2004).
